Data published in patent publication US20110300198A1, “HYDROCOLLOID - ESSENTIAL OIL PATCHES” (priority 2010, published 2011).
Values joined by “and” are separate entries in the source; they are usually repeats but may differ in a detail not shown here. Identical values can stand only once. Marks after values point to notes of the source that are not given here.

Key:
[1] = Ex-vivo transfer of essential-oil constituents through the skin in Franz diffusion cells; assay type: in vitro ADME, rat; conditions: for Accumulated concentration transferred through the skin: from gum karaya-Lavandula angustifolia essential oil patch (7.5% oil); for Accumulated concentration diffused through the skin: mixture of Lavandula angustifolia essential oil and almond oil rubbed on the skin
Protocol: Ex-vivo release studies were performed in Franz diffusion cells (FCs) (PermeGear, Hellertown, Pa.). Stomach skin pieces (1.2 cm×1.2 cm) from a male rat, which were stored in the freezer for 1 month, were thawed at room temperature and placed in glass FCs. The surface area for absorption was 0.64 cm2. The FCs were thermoregulated with a water jacket at 32° C. The 4.5-ml volume of the receptor chamber of the FC was filled with a receptor solution containing 5% (w/v) bovine serum albumin (BSA) diluted with phosphate buffer pH 7.4. […] The receptor solution was continuously agitated with a magnetic stirrer. During the experiments, the donor compartments and sampling arms were sealed to prevent evaporation. The fluid in the receptor chamber was removed after different periods of time (0, 6, 12, 24, 36 and 48 h) and replaced with fresh phosphate buffer solution. Samples were stored at 4° C. after sampling, prior to analysis. Samples were analyzed in a gas chromatograph (Agilent Technologies, Santa Clara, Calif.) with a WAX 30 m×0.32 mm×0.25 μm (Agilent) column.
Transdermal delivery of essential-oil components through rat skin from both lavender essential oil, which includes a high proportion of terpenoids, and Valencia orange essential oil, which includes a considerable amount of terpene, entrapped within gum-karaya-based patches, was examined. In addition to the regular patch adhered to the skin to be tested for essential-oil delivery by the traditional FCs and by in vivo tests (detailed below), another experiment was performed in which the skin was smeared with an almond-essential oil mixture, in order to partially imitate the situation in which the skin is massaged in an aromatherapy session. All experiments were conducted at ambient temperature and the inclusion of the essential oil as part of the almond oil-essential oil mixture (for the massage-like simulation) was equal in quantity and proportion to the inclusion of essential oil within the patch.

[2] = cited from earlier work
[3] = In-vivo experiment with HP-5 column, constituents in blood; set-up: species or system rat
Description: (§1) Male Sprague-Dawley rats, weighing 300-350 g, were used in the studies (Harlan, Rehovot, Israel). The experimental protocols were approved by the Hebrew University of Jerusalem Committee on the Use and Care of Animals. Rats were maintained under specified-pathogen-free (SPF) conditions and were allowed to acclimate to the environment for at least 7 days before their use in the study. Rats were anesthetized and the fur on their stomach shaved prior to exposure. Gum karaya patches with and without lavender essential oil were applied to the rat's stomach skin. Each rat was housed in an individual cage in order to prevent oral contamination of the essential oil by one rat eating another's patch. Blood samples (0.5 ml) were taken at 0, 12, 24, 36, 48 and 60 h from a nick at the tip of tail to determine contents of essential-oil components. Rats were restrained and the tail was gently massaged to facilitate blood collection. Blood samples were collected in vials containing 0.1 ml heparin (100 kU, Sigma). A 10-μl volume of aqueous linalyl isovalerate stock solution was added as an internal standard to each blood sample and samples were stored at −80° C. After 60 h, patches were removed and the application site was wiped with 70% alcohol. Animals were sacrificed and the patch of stomach skin to which the essential oil patch had been applied was removed and minced into small pieces. The skin pieces were placed in 1 ml of ethanol containing linalyl isovalerate as the internal standard and sonicated for 30 min after heating to 50° C. A 10-μl aliquot was then injected straight into the gas chromatograph. A urine sample (0.5 ml) was obtained from the bladder immediately after sacrifice. Urine samples were similarly analyzed by gas chromatography (GC).
Blood (0.5 ml) or phosphate buffer (0.5 ml) was collected at t=0, 12, 24, 36, 48 and 60 h. Blood samples were placed in Eppendorf heparin-coated glass vials (Agilent) by heparin-washed syringe, which were sealed with septa and screw caps. Each vial contained 100 μl of heparin and blood samples were frozen at −80° C. for storage. Prior to analysis, the blood or phosphate buffer was thawed to room temperature, a 10-μl volume of internal standards (6.5 mg linalyl isovalerate and 6.5 mg geranyl formate in 25 ml acetonitrile) was added to the vial and then the mixture was vortexed. The vials were tightly capped using a clear cap with septum. The septa were pre-punctured immediately before analysis using a needle to facilitate the insertion of the fiber sheath. The fiber sheath was inserted through the septum, and positioned to expose the fiber in the center of the headspace. The vial was placed on a heating block to maintain temperature at a constant 50° C. and the solid-phase microextraction (SPME) assembly was clamped securely. Absorption time was 30 min. No stirring was required. After absorption, the SPME fiber sheath was immediately transferred to the GC injector for desorption for 5 min and GC analysis.
GC was performed on an Agilent 7890A gas chromatograph equipped with a split/splitless capillary injector, flame ionization detection (FID) system and GC Chem Station (Version B.03.01; Agilent Technologies 2007). Chromatography was carried out on a WAX or HP-5 column (30 m×0.32 mm×0.25 μm). The GC operating conditions were: splitless or split 1:40 injector 240° C., oven 50° C. for 1 min and then 10° C. min^−1 to 160° C., then 25° C. min^−1 to 240° C. and held for 6 min; the carrier gas was hydrogen.
In this experiment, patches containing lavender essential oil were adhered to the abdomen area. Patches without essential oil served as blanks. […] Detection under splitless conditions facilitated the detection of linalyl acetate, linalool, camphor, borneol and α-terpineol, the latter two being additional constituents detected only under these conditions. High concentrations of linalool, borneol and camphor were detected, in comparison to low levels of terpeneol and linalyl acetate. […]

[4] = In-vivo experiment with WAX column, constituents in blood; set-up: species or system rat; conditions: 7.5% lavender oil patch on abdomen; split injection
Description: as §1, with “After 60 h, patches were removed and the application site was wiped with 70% alcohol. Animals were sacrificed and the patch of stomach skin to which the essential oil patch had been applied was removed and minced into small pieces. The skin pieces were placed in 1 ml of ethanol containing linalyl isovalerate as the internal standard and sonicated for 30 min after heating to 50° C. A 10-μl aliquot was then injected straight into the gas chromatograph. A urine sample (0.5 ml) was obtained from the bladder immediately after sacrifice.” left out, “(GC). […]” for “(GC).”
Patches that included lavender essential oil were adhered to the abdomen skin for 60 h. […] Between 12 and 36 h, a similar, non-significant change in levels was detected. […]

[5] = male, Sprague-Dawley, rat, in vivo

| SMILES | % diffused (of initial amount of entrapped essential oil) ([1]; Almond-lavandula mixture, 0 h) | % diffused (of initial amount of entrapped essential oil) ([1]; Almond-lavandula mixture, 6 h) | % diffused (of initial amount of entrapped essential oil) ([1]; Almond-lavandula mixture, 12 h) | % diffused (of initial amount of entrapped essential oil) ([1]; Almond-lavandula mixture, 24 h) | % diffused (of initial amount of entrapped essential oil) ([1]; Lavandula patch, 0 h) | % diffused (of initial amount of entrapped essential oil) ([1]; Lavandula patch, 6 h) | % diffused (of initial amount of entrapped essential oil) ([1]; Lavandula patch, 12 h) | Accumulated concentration transferred through the skin ([1]; 6 h) | Accumulated concentration transferred through the skin ([1]; 12 h) | Accumulated concentration transferred through the skin ([1]; 24 h) | Accumulated concentration diffused through the skin ([1]; 6 h) | Accumulated concentration diffused through the skin ([1]; 12 h) | Accumulated concentration diffused through the skin ([1]; 24 h) | Log P [2] | also measured |
| --- | --- | --- | --- | --- | --- | --- | --- | --- | --- | --- | --- | --- | --- | --- | --- |
| C=CC(C)(O)CCC=C(C)C (stereo not drawn) [Linalool] | 0.00^a % | 1.29 ± 1.53^a % | 2.01 ± 2.09^a % | 3.93% and 3.93 ± 0.01^a % | 0.00^a % | 0.73 ± 0.16^b % | 1.53 ± 0.03^c % | 16.49 ± 2.81^a mg/L | 34.46 ± 1.20^b mg/L | 61.64 ± 3.83^c mg/L | 31.07 ± 36.72^a mg L^−1 | 48.34 ± 50.41^a mg L^−1 | 94.78 ± 0.19^a mg L^−1 | about 3 | % diffused (of initial amount of entrapped essential oil) ([1]; Lavandula patch, 24 h): 2.74 ± 0.31^d %; Calculated steady-state flux ([1]; rubbing in a mixture with almond oil): 0.027 mg.cm^−2 h^−1; Calculated steady-state flux ([1]; transferred from a lavender essential oil patch): 0.018 mg.cm^2 h^−1; Concentration observed in the blood [3, 5]: 0.099 µg/mL; Highest value in blood [3, 5]: 0.099 mg/L; concentration at 60 h [3, 5]: 0.053 µg/mL; Level in blood after 60 h [4]: no traces |
| C=CC(C)(CCC=C(C)C)OC(C)=O (stereo not drawn) [Linalyl acetate] | 0.00^a % | 0.107 ± 0.150^a % | 0.153 ± 0.216^a % | 0.246 ± 0.344^a % | 0.00^a % | 0.008 ± 0.011^a % | 0.013 ± 0.018^a % | 0.15 ± 0.14^a mg/L | 0.26 ± 0.25^a mg/L | 0.37 ± 0.01^a mg/L | 2.30 ± 2.24^a mg L^−1 | 3.33 ± 3.23^a mg L^−1 | 5.62 ± 4.10^a mg L^−1 | about 4 | Concentration observed in the blood ([3]; quoted for comparison with the skin extract): 0.009 µg/mL |
